Results from PubChem BioAssay AID1259407 (Chemical Carcinogenesis Research Information System (CCRIS), 2018).
Calls of active or inactive are those of the source. The rule behind the calls is not given here.

Tested on: CCRIS mutagenicity, Ames/micronucleus/aberration tests
Test: CCRIS mutagenicity studies

## CN(C)N=O
Test System: AMES SALMONELLA TYPHIMURIUM, Strain/Indicator: TA1535ER, Metabolic Activation: NONE, Method: STANDARD PLATE
  mutagenic call: inactive; negative
Test System: AMES SALMONELLA TYPHIMURIUM, Strain/Indicator: TA1975, Metabolic Activation: RAT, LIVER, S-9, AROCLOR 1254, Method: PREINCUBATION
  mutagenic call: active; positive
Test System: AMES SALMONELLA TYPHIMURIUM, Strain/Indicator: TA2410, Metabolic Activation: NONE, Method: HOST-MEDIATED
  mutagenic call: active; positive
Test System: AMES SALMONELLA TYPHIMURIUM, Strain/Indicator: TA2638, Metabolic Activation: NONE, Method: PREINCUBATION
  mutagenic call: active; positive
Test System: AMES SALMONELLA TYPHIMURIUM, Strain/Indicator: TA2659, Metabolic Activation: NONE, Method: PREINCUBATION
  mutagenic call: inactive; negative
Test System: AMES SALMONELLA TYPHIMURIUM, Strain/Indicator: TA2678, Metabolic Activation: NONE, Method: HOST-MEDIATED
  mutagenic call: active; positive
Test System: AMES SALMONELLA TYPHIMURIUM, Strain/Indicator: YG7100, Metabolic Activation: S-9, Method: PREINCUBATION
  mutagenic call: active; positive
Test System: AMES SALMONELLA TYPHIMURIUM, Strain/Indicator: YG7104, Metabolic Activation: RAT LIVER S-9, ETHANOL (4%), Method: PREINCUBATION
  mutagenic call: active; positive
Test System: AMES SALMONELLA TYPHIMURIUM, Strain/Indicator: YG7104, Metabolic Activation: S-9, Method: PREINCUBATION
  mutagenic call: active; positive
Test System: AMES SALMONELLA TYPHIMURIUM, Strain/Indicator: YG7104ER, Metabolic Activation: NONE, Method: STANDARD PLATE
  mutagenic call: active; positive
Test System: AMES SALMONELLA TYPHIMURIUM, Strain/Indicator: YG7108, Metabolic Activation: RAT LIVER S-9, ETHANOL (4%), Method: PREINCUBATION
  mutagenic call: active; positive
Test System: AMES SALMONELLA TYPHIMURIUM, Strain/Indicator: YG7108, Metabolic Activation: S-9, Method: PREINCUBATION
  mutagenic call: active; positive
Test System: AMES SALMONELLA TYPHIMURIUM, Strain/Indicator: YG7108E, Metabolic Activation: NONE, Method: STANDARD PLATE
  mutagenic call: inactive; negative
Test System: AMES SALMONELLA TYPHIMURIUM, Strain/Indicator: YG7108ER, Metabolic Activation: NONE, Method: STANDARD PLATE
  mutagenic call: active; positive
Test System: AMES SALMONELLA TYPHIMURIUM, Strain/Indicator: YG7108R, Metabolic Activation: NONE, Method: STANDARD PLATE
  mutagenic call: inactive; negative
Test System: AMES SALMONELLA TYPHIMURIUM, Strain/Indicator: YG7112, Metabolic Activation: S-9, Method: PREINCUBATION
  mutagenic call: active; positive
Test System: AMES SALMONELLA TYPHIMURIUM, Strain/Indicator: YG7113, Metabolic Activation: S-9, Method: PREINCUBATION
  mutagenic call: active; positive
Test System: AMES SALMONELLA TYPHIMURIUM, Strain/Indicator: YG7119, Metabolic Activation: S-9, Method: PREINCUBATION
  mutagenic call: inactive; negative
Test System: CHINESE HAMSTER V-79, Strain/Indicator: V-79 (HPRT)/6-THIOGUANINE, Metabolic Activation: RAT, HEPATOCYTES
  mutagenic call: active; positive
Test System: CHINESE HAMSTER V-79, Strain/Indicator: V-79 (HPRT)/6-THIOGUANINE, Metabolic Activation: RAT, HEPATOMA, H4IIE CELLS
  mutagenic call: active; positive
Test System: CHINESE HAMSTER V-79, Strain/Indicator: V-79 (HPRT)/6-THIOGUANINE, Metabolic Activation: RAT, LIVER, S-9, AROCLOR 1254
  mutagenic call: active; positive
Test System: CHINESE HAMSTER V-79, Strain/Indicator: V-79/6-THIOGUANINE, Metabolic Activation: NONE, Method: STANDARD PLATE
  mutagenic call: inactive; negative
Test System: CHINESE HAMSTER V-79, Strain/Indicator: V-79/6-THIOGUANINE, Metabolic Activation: RAT, HEPATOCYTES, BUTYLATED HYDROXYANISOLE, Method: STANDARD PLATE
  mutagenic call: active; positive
Test System: CHINESE HAMSTER V-79, Strain/Indicator: V-79/6-THIOGUANINE, Metabolic Activation: RAT, HEPATOCYTES, Method: STANDARD PLATE
  mutagenic call: active; positive
Test System: CHINESE HAMSTER V-79, Strain/Indicator: V-79/6-THIOGUANINE, Metabolic Activation: RAT, LIVER, S-15, PHENOBARBITAL, Method: STANDARD PLATE
  mutagenic call: active; positive
Test System: CHINESE HAMSTER V-79, Strain/Indicator: V-79/8-AZAGUANINE, Metabolic Activation: RAT, LIVER, S-15, PHENOBARBITAL, Method: STANDARD PLATE
  mutagenic call: active; positive
Test System: CHINESE HAMSTER V-79, Strain/Indicator: V-79/OUABAIN, Metabolic Activation: CELL-MEDIATED, Method: STANDARD PLATE
  mutagenic call: active; positive
Test System: CHINESE HAMSTER V-79, Strain/Indicator: V-79/OUABAIN, Metabolic Activation: FREE MICROSOMES M, LIVER, Method: STANDARD PLATE
  mutagenic call: active; positive
Test System: CHINESE HAMSTER V-79, Strain/Indicator: V-79/OUABAIN, Metabolic Activation: HAMSTER, HEPATOCYTES, Method: CELL-MEDIATED
  mutagenic call: active; positive
Test System: CHINESE HAMSTER V-79, Strain/Indicator: V-79/OUABAIN, Metabolic Activation: NONE, Method: STANDARD PLATE
  mutagenic call: inactive; negative
Test System: CHINESE HAMSTER V-79, Strain/Indicator: V-79/OUABAIN, Metabolic Activation: RAT, HEPATOCYTES, BUTYLATED HYDROXYANISOLE, Method: STANDARD PLATE
  mutagenic call: active; positive
Test System: CHINESE HAMSTER V-79, Strain/Indicator: V-79/OUABAIN, Metabolic Activation: RAT, HEPATOCYTES, Method: STANDARD PLATE
  mutagenic call: active; positive
Test System: CHO/HGPRT, Strain/Indicator: CHO-K1-BH4, Metabolic Activation: MOUSE, IN VIVO, Method: HOST-MEDIATED
  mutagenic call: active; positive
Test System: E. COLI, Strain/Indicator: WP2 (HCR), Metabolic Activation: RAT, LIVER, MICROSOMES, KANECHLOR 500, Method: PREINCUBATION
  mutagenic call: inactive; negative
Test System: E. COLI, Strain/Indicator: WP2, Metabolic Activation: NONE, Method: STANDARD PLATE
  mutagenic call: active; positive
Test System: E. COLI, Strain/Indicator: WP2, Metabolic Activation: RAT, LIVER, S-9, AROCLOR 1254, Method: STANDARD PLATE
  mutagenic call: active; positive
Test System: E. COLI, Strain/Indicator: WP2 UVRA, Metabolic Activation: HAMSTER, LIVER, S-9, AROCLOR 1254, Method: PREINCUBATION
  mutagenic call: inactive; negative
Test System: E. COLI, Strain/Indicator: WP2 UVRA, Metabolic Activation: HAMSTER, LIVER, S-9, Method: PREINCUBATION
  mutagenic call: inactive; negative
Test System: E. COLI, Strain/Indicator: WP2 UVRA, Metabolic Activation: MOUSE, LIVER, S-9, AROCLOR 1254, Method: PREINCUBATION
  mutagenic call: inactive; negative
Test System: E. COLI, Strain/Indicator: WP2 UVRA, Metabolic Activation: MOUSE, LIVER, S-9, Method: PREINCUBATION
  mutagenic call: inactive; negative
Test System: E. COLI, Strain/Indicator: WP2 UVRA, Metabolic Activation: NONE, Method: PREINCUBATION
  mutagenic call: inactive; negative
Test System: E. COLI, Strain/Indicator: WP2 UVRA, Metabolic Activation: NONE, Method: STANDARD PLATE
  mutagenic call: active; positive
Test System: E. COLI, Strain/Indicator: WP2 UVRA, Metabolic Activation: RAT, LIVER, S-9, AROCLOR 1254, Method: PREINCUBATION
  mutagenic call: inactive; negative
Test System: E. COLI, Strain/Indicator: WP2 UVRA, Metabolic Activation: RAT, LIVER, S-9, AROCLOR 1254, Method: STANDARD PLATE
  mutagenic call: active; positive
Test System: E. COLI, Strain/Indicator: WP2 UVRA, Metabolic Activation: RAT, LIVER, S-9, Method: PREINCUBATION
  mutagenic call: inactive; negative
Test System: MOUSE LYMPHOMA, Strain/Indicator: L5178Y (TK+/TK-), Metabolic Activation: RAT, LIVER, S-9, AROCLOR 1254, Method: SUSPENSION/PLATE
  mutagenic call: active; positive
Test System: MOUSE LYMPHOMA, Strain/Indicator: L5178Y (TK+/TK-), Metabolic Activation: RAT, LIVER, S-9, Method: SUSPENSION/PLATE
  mutagenic call: active; positive
Test System: UDS HUMAN CELLS, Strain/Indicator: THY INCORP (NON-S-PHASE), Metabolic Activation: NONE, Method: AUTORADIOGRAPHY
  mutagenic call: active; positive
Test System: UDS HUMAN CELLS, Strain/Indicator: THY INCORP (NON-S-PHASE), Metabolic Activation: RAT, LIVER, S-9, Method: AUTORADIOGRAPHY
  mutagenic call: active; positive
Test System: UDS HUMAN FIBROBLASTS, Strain/Indicator: THY INCORP (NON-S-PHASE), Metabolic Activation: NONE, Method: AUTORADIOGRAPHY
  mutagenic call: active; positive
Test System: UDS HUMAN FIBROBLASTS, Strain/Indicator: THY INCORP (NON-S-PHASE), Metabolic Activation: RAT, LIVER, S-9, Method: LIQUID SCINTILLATION COUNTING
  mutagenic call: active; positive
Test System: UDS MONKEY HEPATOCYTES, Strain/Indicator: THY INCORP, Metabolic Activation: AROCLOR 1254, Method: AUTORADIOGRAPHY
  mutagenic call: active; positive
Test System: UDS MONKEY HEPATOCYTES, Strain/Indicator: THY INCORP, Metabolic Activation: NONE, Method: AUTORADIOGRAPHY
  mutagenic call: active; positive
Test System: UDS MOUSE HEPATOCYTES, Metabolic Activation: NONE, Method: IN VIVO-IN VITRO
  mutagenic call: active; positive
Test System: UDS RAT HEPATOCYTES, Strain/Indicator: BROMODEOXYURIDINE INCORP, Metabolic Activation: NONE, Method: FLOW CYTOMETRIC ANALYSIS
  mutagenic call: active; positive
Test System: UDS RAT HEPATOCYTES, Strain/Indicator: THY INCORP, Metabolic Activation: NONE, Method: AUTORADIOGRAPHY
  mutagenic call: active; positive
Test System: UDS RAT HEPATOCYTES, Strain/Indicator: THY INCORP, Metabolic Activation: NONE, Method: LIQUID SCINTILLATION COUNTING
  mutagenic call: active; positive
Test System: UDS RODENT HEPATOCYTES, Strain/Indicator: THY INCORP (NON-S-PHASE), Method: AUTORADIOGRAPHY
  mutagenic call: active; positive
Test System: UDS RODENT HEPATOCYTES, Strain/Indicator: THY INCORP (NON-S-PHASE), Method: LIQUID SCINTILLATION COUNTING
  mutagenic call: active; positive
Test System: UDS, Strain/Indicator: HEPG2/THYMIDINE INCORPORATION, Metabolic Activation: NONE, Method: AUTORADIOGRAPHY
  mutagenic call: active; positive
